The values below come from patent US12060349B2, “Glucosylceramide synthase inhibitors” (Genzyme Corporation, priority 2012, dated 2024).

Where only a bound is given, the exact number is not on record here.

The test system of assay [1] is GM3 expression on the cell surface, C32 human melanoma cells. Nature of the assay: cell based phenotypic assay, cell surface GM3 by antibody mediated immunofluorescence, C32 (GM3 C32 IC50). The conditions noted are these: Homo sapiens, C32 human melanoma cells; 50% inhibition of GM3 expression on the cell surface; read-out: GM3 C32 IC50. In outline: (§1)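 Two melanoma lines, mouse B16 and human C32, were treated and surface GM3 quantified by antibody immunofluorescence for IC50. A parallel viability readout gives the concentration killing 50% of cells, with values over 10 indicating no cell death.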

Assay [2] concerns GM3 expression on the cell surface, B16 mouse melanoma cells. Put plainly: cell based phenotypic assay, cell surface GM3 by antibody mediated immunofluorescence, B16 (GM3 B16 IC50). The following applies: Mus musculus, B16 mouse melanoma cells; 50% inhibition of GM3 expression on the cell surface; read-out: GM3 B16 IC50. In outline: as §1
For a further assay, the system named is B16 mouse melanoma cells. Nature of the assay: cell viability in the B16 cell-based assay (Viability, B16 IC50). The following applies: Mus musculus, B16, B16 cells; concentration causing 50% cell death; values greater than 10 represent a lack of cell death; read-out: Viability, B16 IC50. In outline:
(§2)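 Both lines undergo the phenotypic GM3 assay, and viability is recorded from that same cell-based run.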

For the next assay, the system named is C32 human melanoma cells. Nature of the assay: cell viability in the C32 cell-based assay (Viability, C32 IC50). The conditions noted are these: Homo sapiens, C32, C32 cells; concentration causing 50% cell death; values greater than 10 represent a lack of cell death; read-out: Viability, C32 IC50. In outline:
as §2

Assay [3] concerns the target T1, glucosylceramide synthase (Homo sapiens, UniProt Q16739).
T1 construct: Microsomes were isolated from A375 human melanoma cells; endogenous in cells; host or cells: A375 human melanoma cells (microsomal fraction, 100,000 g pellet)
T1 sequence (Q16739 1-394): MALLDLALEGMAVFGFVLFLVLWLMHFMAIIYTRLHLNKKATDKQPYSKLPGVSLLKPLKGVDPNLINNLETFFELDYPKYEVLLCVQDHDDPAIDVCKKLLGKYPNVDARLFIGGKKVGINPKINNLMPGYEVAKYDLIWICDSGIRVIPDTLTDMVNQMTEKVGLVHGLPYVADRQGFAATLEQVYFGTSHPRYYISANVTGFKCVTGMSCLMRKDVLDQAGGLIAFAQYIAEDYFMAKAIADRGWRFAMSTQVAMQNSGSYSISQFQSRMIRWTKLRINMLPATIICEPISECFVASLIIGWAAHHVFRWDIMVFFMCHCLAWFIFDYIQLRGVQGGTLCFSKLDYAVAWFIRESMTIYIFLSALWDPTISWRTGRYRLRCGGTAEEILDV
Put plainly: microsomal assay measuring conversion of ceramide to glucosylceramide by HPLC (GCS IC50). The format is biochemical. The following applies: concentration causing 50% inhibition of glucosylceramide synthase activity. In outline: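 Microsomal preparation assayed for glucosylceramide synthase by direct HPLC measurement of ceramide conversion to glucosylceramide. GCS IC50 is the compound concentration giving 50% inhibition of enzyme activity.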

For the compound `COCCCOc1ccc(-c2nc(N3CCC(C(=O)NC4(C)CN5CCC4CC5)CC3)ncc2F)cc1` (stereo not drawn) [Example 63, 1-(5-Fluoro-4-(4-(3-methoxypropoxy)phenyl)pyrimidin-2-yl)-N-(3-methylquinuclidin-3-yl)piperidine-4-carboxamide], the half-maximal inhibitory concentration (IC50) (in general, the midpoint of a concentration-inhibition curve) in assay [1] was found to be 0.0988 nM; in assay [2] it was 40.8 nM; with B16 mouse melanoma cells it was 3520 nM; in the assay with C32 human melanoma cells it was 100 nM; in assay [3], 0.586 nM.

Consider `CC1(NC(=O)C2CCN(c3nccc(-c4ccc(F)c(F)c4)n3)CC2)CCN2CCC1CC2` (stereo not drawn) [Example 64, 1-(4-(3,4-Difluorophenyl)pyrimidin-2-yl)-N-(4-methyl-1-azabicyclo[3.2.2]nonan-4-yl)piperidine-4-carboxamide], for which the IC50 came to 0.062 nM in assay [1]; 32.9 nM in assay [2]; 3420 nM in the assay on B16 mouse melanoma cells; 5530 nM in the assay on C32 human melanoma cells; 1.7 nM in assay [3].

On to `CC1(NC(=O)C2CCN(c3nccc(-c4cc(F)cc(F)c4)n3)CC2)CCN2CCC1CC2` (stereo not drawn) [Example 65, 1-(4-(3,5-Difluorophenyl)pyrimidin-2-yl)-N-(4-methyl-1-azabicyclo[3.2.2]nonan-4-yl)piperidine-4-carboxamide], for which the concentration for half-maximal inhibition (IC50) in assay [1] worked out at 0.0934 nM; in assay [2], 56.1 nM; in the assay on B16 mouse melanoma cells, 4140 nM; in the assay on C32 human melanoma cells it was 215 nM; in assay [3], 1.31 nM.

With `COCCOc1ccc(-c2ccnc(N3CCC(C(=O)NC4(C)CCN5CCC4CC5)CC3)n2)cc1` (stereo not drawn) [Example 66, 1-(4-(4-(2-Methoxyethoxy)phenyl)pyrimidin-2-yl)-N-(4-methyl-1-azabicyclo[3.2.2]nonan-4-yl)piperidine-4-carboxamide], the IC50 in assay [1] came to 0.329 nM; in assay [2] it was 69.3 nM; in the assay on B16 mouse melanoma cells, 8200 nM; in the assay with C32 human melanoma cells, 215 nM; in assay [3], 3.17 nM.

For the compound `COCCCOc1ccc(-c2ccnc(N3CCC(C(=O)NC4(C)CCN5CCC4CC5)CC3)n2)cc1` (stereo not drawn) [Example 67, 1-(4-(4-(3-Methoxypropoxy)phenyl)pyrimidin-2-yl)-N-(4-methyl-1-azabicyclo[3.2.2]nonan-4-yl)piperidine-4-carboxamide], the IC50 in assay [1] amounted to 0.114 nM; in assay [2] it was 7.24 nM; with B16 mouse melanoma cells it was 4950 nM; in the assay on C32 human melanoma cells, 1000 nM; in assay [3] it was 1.88 nM.

Take `COCCOc1ccc(-c2cccc(N3CCC(C(=O)NC4(C)CCN5CCC4CC5)CC3)c2)cc1` (stereo not drawn) [Example 68, 1-(4′-(2-Methoxyethoxy)-[1,1′-biphenyl]-3-yl)-N-(4-methyl-1-azabicyclo[3.2.2]nonan-4-yl)piperidine-4-carboxamide]: the IC50 in assay [1] was 3.53 nM; in assay [2], 132 nM; with B16 mouse melanoma cells it was 7120 nM; in the assay on C32 human melanoma cells, 3160 nM; in assay [3], 21.3 nM.

As to `COCCOCc1ccc(-c2cccc(N3CCC(C(=O)NC4(C)CCN5CCC4CC5)CC3)c2)cc1` (stereo not drawn) [Example 69, 1-(4′-((2-Methoxyethoxy)methyl)-[1,1′-biphenyl]-3-yl)-N-(4-methyl-1-azabicyclo[3.2.2]nonan-4-yl)piperidine-4-carboxamide], the half-inhibitory concentration (IC50) is 4.64 nM in assay [1]; 303 nM in assay [2]; 4640 nM in the assay on B16 mouse melanoma cells; 1000 nM in the assay with C32 human melanoma cells; 36.2 nM in assay [3].

Consider `COCc1ccc(-c2ccnc(N3CCC(C(=O)NC4(C)CCN5CCC4CC5)CC3)n2)cc1` (stereo not drawn) [Example 70, 1-(4-(4-(Methoxymethyl)phenyl)pyrimidin-2-yl)-N-(4-methyl-1-azabicyclo[3.2.2]nonan-4-yl)piperidine-4-carboxamide], for which the concentration for half-maximal inhibition (IC50) worked out at 0.0905 nM in assay [1]; 15.6 nM in assay [2]; 1000 nM with B16 mouse melanoma cells; 1000 nM with C32 human melanoma cells; 3.96 nM in assay [3].

On to `CC1(NC(=O)C2CCN(c3nccc(-c4ccc(OCCF)cc4)n3)CC2)CCN2CCC1CC2` (stereo not drawn) [Example 71, 1-(4-(4-(2-Fluoroethoxy)phenyl)pyrimidin-2-yl)-N-(4-methyl-1-azabicyclo[3.2.2]nonan-4-yl)piperidine-4-carboxamide], for which the concentration for half-maximal inhibition (IC50) in assay [1] stood at 0.126 nM; in assay [2], 4.29 nM; in the assay on B16 mouse melanoma cells it was 2150 nM; in the assay with C32 human melanoma cells, 10 nM; in assay [3], 2.48 nM.

On to `COCCCOc1ccc(-c2ccnc(N3CCC(C(=O)NC4CN5CCC4CC5)CC3)n2)cc1` (stereo not drawn) [Example 72, 1-(4-(4-(3-Methoxypropoxy)phenyl)pyrimidin-2-yl)-N-(quinuclidin-3-yl)piperidine-4-carboxamide], for which the 50% inhibitory concentration (IC50) came out at 0.26 nM in assay [1]; 79.5 nM in assay [2]; 8630 nM with B16 mouse melanoma cells; 464 nM in the assay on C32 human melanoma cells; 1.16 nM in assay [3].

Turning to `COCc1ccc(-c2ccnc(N3CCC(C(=O)NC4(C)CN5CCC4CC5)CC3)n2)cc1` (stereo not drawn) [Example 73, 1-(4-(4-(Methoxymethyl)phenyl)pyrimidin-2-yl)-N-(3-methylquinuclidin-3-yl)piperidine-4-carboxamide], the 50% inhibitory concentration (IC50) in assay [1] was 0.25 nM; in assay [2], 47.4 nM; with B16 mouse melanoma cells, 4640 nM; with C32 human melanoma cells, 631 nM; in assay [3] it was 3.46 nM.

Consider `COCCOCc1ccc(-c2ccnc(N3CCC(C(=O)NC4(C)CCN5CCC4CC5)CC3)n2)cc1` (stereo not drawn) [Example 74, 1-(4-(4-((2-Methoxyethoxy)methyl)phenyl)pyrimidin-2-yl)-N-(4-methyl-1-azabicyclo[3.2.2]nonan-4-yl)piperidine-4-carboxamide], for which the IC50 in assay [1] was 0.71 nM; in assay [2], 32.5 nM; with B16 mouse melanoma cells, at least 10000 nM; in the assay with C32 human melanoma cells, 215 nM; in assay [3] it was 12.8 nM.

Turning to `COCc1ccc(-c2ccnc(N3CCC(F)(C(=O)NC4(C)CCN5CCC4CC5)CC3)n2)cc1` (stereo not drawn) [Example 75, 4-Fluoro-1-(4-(4-(methoxymethyl)phenyl)pyrimidin-2-yl)-N-(4-methyl-1-azabicyclo[3.2.2]nonan-4-yl)piperidine-4-carboxamide], the IC50 in assay [1] was 0.383 nM; in assay [2], 48.9 nM; with B16 mouse melanoma cells, 5270 nM; in the assay on C32 human melanoma cells it was 316 nM; in assay [3], 2.83 nM.

For `COCCCOc1ccc(-c2ccnc(N3CCC(F)(C(=O)NC4(C)CN5CCC4CC5)CC3)n2)cc1` (stereo not drawn) [Example 76, 4-Fluoro-1-(4-(4-(3-methoxypropoxy)phenyl)pyrimidin-2-yl)-N-(3-methylquinuclidin-3-yl)piperidine-4-carboxamide], the IC50 in assay [1] came out at 0.141 nM; in assay [2], 58.7 nM; with B16 mouse melanoma cells, 3870 nM; in the assay with C32 human melanoma cells, 1000 nM; in assay [3] it was 1.34 nM.

Take `COCCOCc1ccc(-c2nc(N3CCC(F)(C(=O)NC4(C)CCN5CCC4CC5)CC3)ncc2F)cc1` (stereo not drawn) [Example 77, 4-Fluoro-1-(5-fluoro-4-(4-((2-methoxyethoxy)methyl)phenyl)pyrimidin-2-yl)-N-(4-methyl-1-azabicyclo[3.2.2]nonan-4-yl)piperidine-4-carboxamide]: the IC50 amounted to 0.316 nM in assay [1]; 86.3 nM in assay [2]; 3760 nM in the assay on B16 mouse melanoma cells; 316 nM with C32 human melanoma cells; 1.67 nM in assay [3].

On to `COCc1ccc(-c2ccnc(N3CCC(F)(C(=O)NC4(C)CN5CCC4CC5)CC3)n2)cc1` (stereo not drawn) [Example 80, 4-Fluoro-1-(4-(4-(methoxymethyl)phenyl)pyrimidin-2-yl)-N-(3-methylquinuclidin-3-yl)piperidine-4-carboxamide], for which the IC50 in assay [1] is 0.525 nM; in assay [2], 68.5 nM; in the assay on B16 mouse melanoma cells, at least 10000 nM; with C32 human melanoma cells, 215 nM; in assay [3], 4 nM.

With `COCc1ccc(-c2ccnc(N3CCC(F)(C(=O)N[C@]4(C)CN5CCC4CC5)CC3)n2)cc1` [Example 81, (S)-4-Fluoro-1-(4-(4-(methoxymethyl)phenyl)pyrimidin-2-yl)-N-(3-methylquinuclidin-3-yl)piperidine-4-carboxamide], the half-inhibitory concentration (IC50) in assay [1] was 0.222 nM; in assay [2] it was 48.1 nM; in the assay on B16 mouse melanoma cells it was at least 10000 nM; in the assay on C32 human melanoma cells, 316 nM; in assay [3], 2.3 nM.

Consider `COCCCOc1ccc(-c2ccnc(N3CCC(F)(C(=O)NC4(C)CCN5CCC4CC5)CC3)n2)cc1` (stereo not drawn) [Example 82, 4-Fluoro-1-(4-(4-(3-methoxypropoxy)phenyl)pyrimidin-2-yl)-N-(4-methyl-1-azabicyclo[3.2.2]nonan-4-yl)piperidine-4-carboxamide], for which the IC50 in assay [1] came out at 0.128 nM; in assay [2], 42.1 nM; with B16 mouse melanoma cells, 2790 nM; in the assay on C32 human melanoma cells, 1000 nM; in assay [3] it was 1.26 nM.
